Measurements published in patent US20220331500A1, “DIALYZER” (SCHOOL JURIDICAL PERSON THE KITASATO INSTITUTE, priority 2019, published 2022).
Read-outs that look alike come from different tables or passages of the source.

Columns and labels:
[1] = NO donor, NO release; cited from earlier work
Sprague Dawley rats [2] = tested on: Sprague Dawley rats
Description: (§1) Male Sprague Dawley rats (body weight: 300 g to 400 g) that were 8 to 12 weeks old were used. The rats were inhaled and anesthetized using isoflurane 1.5% to 3.0% as an anesthetic. Blood was removed from the carotid artery, and blood was returned into the tail vein. The blood flow rate was 0.5 mL/min to 1.0 mL/min, the dialysate flow rate was 3 mL/min, and the blood dialysis was performed for 4 hours by a parallel flow operation. Heparin was administered at 0.7 units/g at the start of dialysis.
(§2) Dialysates in which the sodium nitrite concentration was adjusted to be 40 μM, 80 μM, and 120 μM were used. As a control group, a dialysate containing no sodium nitrite was used.
(§3) During the experiment, arterial pressure, dialyzer inlet pressure, and venous pressure were measured at intervals of 15 minutes. Additionally, methemoglobin (Met-Hb) was measured at the start of the experiment and then at intervals of 60 minutes. Additionally, after the circulation was ended, the dialyzer was washed, and the amount of residual blood hemoglobin (Hb) amount and the activity value of residual blood lactate dehydrogenase (LDH) were measured.
After the end of 4 hours of circulation, the dialyzer was washed with 10 mL of Lactec Injection and then a 0.5% Triton (Registered trademark) solution was circulated for 2 hours. After that, an LDH activity value in a washing solution was measured using a commercially available kit (“Cytotoxicity Measurement KitPLUS (LDH)” made by Roche Diagnostics K.K.) and used as the residual blood LDH activity value.

Sprague Dawley rats [3] = details: all groups (40, 80, 120 μM sodium nitrite)
Description: as §1, §2, §3

Sprague Dawley rats [4] = tested on: Sprague Dawley rats; remark: listed apart in the source
Description: Blood dialysis of rats was performed by changing the amount of nitrite to be supplied to the dialysate, and the optimal concentration of nitrite was examined.
as §1
As the dialysis unit (dialyzer), a small rat dialyzer having a cellulose triacetate membrane, 140 hollow fibers, an effective length of 146 mm, and a membrane area of 0.014 m^2 were used.
as §2, §3
The experiment was performed with a circulation time of 4 hours. When the dialyzer inlet pressure or venous pressure exceeded 250 mmHg, the circulation was ended.

Sprague Dawley rats [5] = test: Measurement of NO concentration in blood and dialysate during rat blood dialysis (OxiSelect Nitrite/Nitrate kit); assay type: in vivo; details: 800 ppm NO gas; blood (out) venous side vs blood (in) arterial side of dialysis unit; 1 hour
Description: (§4) NO gas of which the concentration was adjusted to 200 ppm, 400 ppm, and 800 ppm was added to the dialysate via a gas exchanger. As a control group, nitrogen gas (N2) was added to the dialysate instead of NO gas.
For a group in which 800 ppm of NO gas was supplied to the dialysate, the dialysate was supplied to the blood (in) on an arterial side of the dialysis unit, the blood (out) on a venous side of the dialysis unit, the dialysate (in) in the dialysate supply channel for supplying the dialysate to the dialysis unit, and the dialysate (out) in the dialysate discharge channel for discharging the dialysate from the dialysis unit were collected 1 hour after the start of circulation, and the NO concentration was measured using a commercially available kit (“OxiSelect In Vitro Nitric Oxide (Nitrite/Nitrate) Assay Kit (Colorimetric)” made by Cell Biolabs, Inc.). The NO concentration was measured as the sum of the concentrations of NO2^− and NO3^− after the NO was completely hydrolyzed. For this reason, hereinafter, there is a case where the total concentration of […] is referred to as the NO concentration.

Sprague Dawley rats [6] = test: Residual blood LDH activity value and residual blood Hb in the dialyzer after 4 hours of circulation (NO gas); assay type: in vivo, rat; details: for amount of residual blood Hb: compared to control group
Description: as §4
(§5) FIG. 3 is a schematic diagram showing the structure of a circulation circuit in which the dialyzer is connected to a rat. […] In a case where it was possible to perform the 4-hours circulation, the residual blood in the dialyzer was evaluated.
In FIG. 6, “Control” indicates the results of the control group, and “200 ppm”, “400 ppm”, and “800 ppm” indicate the results of a group in which NO gas of each concentration was supplied to the dialysate.

Sprague Dawley rats [7] = test: Methemoglobin (Met-Hb) during rat blood dialysis with NO gas; assay type: in vivo
Description: as §4

Sprague Dawley rats [8] = test: Rat blood dialysis with NO gas supplied to the dialysate: 4-hour circulation achievement rate; assay type: in vivo; details: for 4-hour circulation achievement rate: rat blood dialysis
Description: An extracorporeal perfusion type polymethylpentene membrane oxygenator was used for gas exchange.
as §4, §5
During the experiment, there was a case where the dialyzer inlet pressure or venous pressure increased, the blood coagulation in the dialyzer or the blood coagulation in the circuit were determined, and the circulation was stopped halfway. Thus, in all groups, the number of 4-hour circulation achievements with respect to the total number of experiments was calculated as the 4-hour circulation achievement rate.
FIG. 4 is a graph showing the 4-hour circulation achievement rate. In FIG. 4, “Control” indicates the results of the control group, and “200 ppm”, “400 ppm”, and “800 ppm” indicate the results of a group in which NO gas of each concentration was supplied to the dialysate.

[9] = 80 μM sodium nitrite in dialysate, compared to control group
[10] = 120 μM sodium nitrite in dialysate, compared to control group
[11] = extrapolated from the 200-800 ppm results

## CC(C)N(CCCN)/[N+]([O-])=N/O [NOC5]
[1]
  Half-life: 25 min

## CNCCCN(C)/[N+]([O-])=N/O [NOC7]
[1]
  Half-life: 5 min

## CCNCCN(CC)[N+]([O-])=NO [NOC12]
[1]
  Half-life: 100 min

## NCCN(CCN)/[N+]([O-])=N/O [NOC18]
[1]
  Half-life: 1260 min

## COCC(/C(C)=C/C(=N/O)C(N)=O)[N+](=O)[O-] (stereo not drawn) [NOR1]
[1]
  Half-life: 1.8 min

## CC/C(=C\C(CNC(=O)c1cccnc1)=N\O)C(C)[N+](=O)[O-] (stereo not drawn) [NOR4]
[1]
  Half-life: 60 min

## O=NO [sodium nitrite]
Sprague Dawley rats [2]; 40 μM sodium nitrite in dialysate, compared to control group
  residual blood LDH activity value: significantly lower
Sprague Dawley rats [2]; 80 μM and 120 μM as compared to 40 μM
  residual blood LDH activity value: lower value
Sprague Dawley rats [2]; [9]
  amount of residual blood Hb: significantly lower
  residual blood LDH activity value: significantly lower
Sprague Dawley rats [2]; [10]
  amount of residual blood Hb: significantly lower
  residual blood LDH activity value: significantly lower
Sprague Dawley rats [3]
  Met-Hb concentration: ≤ 2%
Sprague Dawley rats [4]; 40 μM sodium nitrite in dialysate
  blood pressure (arterial pressure) during circulation: stable for 4 hours
Sprague Dawley rats [4]; 80 μM sodium nitrite in dialysate
  blood pressure (arterial pressure) during circulation: stable for 4 hours
Sprague Dawley rats [4]; 120 μM sodium nitrite in dialysate, vs control group
  blood pressure (arterial pressure) during circulation: significantly lower
Sprague Dawley rats [4]; 120 μM sodium nitrite in dialysate, vs control group, listed as nitrite ions
  blood pressure (arterial pressure) during circulation: slight decrease
Sprague Dawley rats [4]; sodium nitrite groups (40, 80, 120 μM) and control
  4 hours circulation: circulate stably for 4 hours

## nitric oxide [NO gas]
Sprague Dawley rats [5]
  amount of increase in NO concentration in blood: about 3 μM
Sprague Dawley rats [6]; 200 ppm NO gas supplied to the dialysate
  amount of residual blood Hb: significantly lower
Sprague Dawley rats [6]; 200 ppm NO gas supplied to the dialysate, compared to control group (N2), after 4 hours
  residual blood LDH activity value: significantly lower
Sprague Dawley rats [6]; 400 ppm NO gas supplied to the dialysate
  amount of residual blood Hb: significantly lower
Sprague Dawley rats [6]; 400 ppm NO gas supplied to the dialysate, compared to control group (N2), after 4 hours
  residual blood LDH activity value: significantly lower
Sprague Dawley rats [6]; 800 ppm NO gas supplied to the dialysate
  amount of residual blood Hb: significantly lower
Sprague Dawley rats [6]; 800 ppm NO gas supplied to the dialysate, compared to control group (N2), after 4 hours
  residual blood LDH activity value: significantly lower
Sprague Dawley rats [6]; as the NO concentration was higher (200 to 800 ppm)
  residual blood LDH activity value: lower value
Sprague Dawley rats [6]; [11]
  NO concentration at which the residual blood LDH activity value was 0 U/L: 6 µM
Sprague Dawley rats [7]; 800 ppm NO gas
  Met-Hb: ≤ 10%
Sprague Dawley rats [7]; NO gas of 200 ppm to 800 ppm supplied to the dialysate
  adverse event: no adverse event occurred
Sprague Dawley rats [7]; all NO-added groups (200 ppm to 800 ppm)
  Met-Hb: less than 10%
Sprague Dawley rats [8]; [11]
  NO concentration at which the 4-hour circulation achievement rate was 100%: 5.4 µM
Sprague Dawley rats [8]; 800 ppm compared with 200 ppm and 400 ppm
  4-hour circulation achievement rate: higher
Sprague Dawley rats [8]; as the concentration of NO gas supplied to the dialysate was higher (200, 400, 800 ppm)
  4-hour circulation achievement rate: increased
